Laboratory results taken from patent US20040023952A1 (priority 2002, published 2004).

Test system: V1 cortical cells
Assay type: in vivo, rhesus monkeys (Macaca mulatta)
Settings: for signal-to-noise ratio of cortical cells (response to appropriate stimuli divided by spontaneous discharge rate): FIG. 7; for peak response (maximum visually evoked response) of V1 cortical cells / spontaneous activity of V1 cortical cells: intracortical delivery through microelectrode; for peak response (maximum visually evoked response) of V1 cortical cells: FIG. 5; for spontaneous activity of V1 cortical cells: FIG. 6; for direction selectivity of a representative cortical cell / orientation selectivity of a representative cortical cell / peak response of a representative cortical cell / spontaneous activity of a representative cortical cell: single cell of old monkey, FIG. 10, three minutes after GABA or muscimol application, within five minutes of bicuculline
Excerpt: Extracellular single-neuron recording techniques were used to examine the stimulus selectivities of VI cells in very old rhesus monkeys showing normal optics and retinogeniculate projections. A total of 187 neurons were studied in 4 young rhesus monkeys (Maraca mulatta), and 254 neurons in 4 old rhesus monkeys. Subjects for physiological experiments were abbreviated as OM1-4 (for old monkey 1-4) and YM1-4 (for young monkey 1-4). Retinal data were obtained from one additional young macaque (YM5, Macaca fascicularis). Multiple ophthalmological exams were conducted to ensure optical and retinal health of all subjects prior to testing.
Subjects for this study were four young adult (7-9 year old) and four very old (28-30 year old) female rhesus monkeys (Macaca mullata). […] Thus, the 28-30 year old monkeys were considered old, whereas the 7-9 year old monkeys were at an age considered sexually mature. Retinal control data for FIG. 1 are provided from one additional young female Macaca facsicularis, which was used in previous studies. Onset latency data from YM4 are published. Monkeys were examined ophthalmoscopically, and no apparent optical or retinal problems were detected that would impair visual function. Retinal blood vessels, lens clarity and the maculae all appeared normal. All cells studied had receptive fields between 2 and 5 degrees from the fovea. Monkeys were prepared for electrophysiological recording using standard techniques consistent with Society for Neuroscience and National Institute of Health guidelines.
Subjects were sedated with Ketamine HC1 (Ketalar, Parke-Davis, Morris Plains, N.J.) and then anesthetized with halothane (5%; Halocarton Laboratories, River Edge, N.J.) in a 70:30 mixture of […]. Intravenous and tracheal cannulae were inserted, the animals were placed in a stereotaxic apparatus, and pressure points and incisions were infiltrated with a long-acting anesthetic (2% lidocaine HCI, Copley Pharmaccuticak, Canton, Mass.). A mixture of D-tubocurarine (0.4 mg per kg per hour) and gallamine triethiodide (7 mg per kg per hour) was infused intravenously to induce and maintain paralysis. Animals were ventilated, and anesthesia was maintained with a mixture of nitrous oxide (75%), oxygen (25%) and halothane (0.25-1.0%) as needed.
A small burr hole was made above the striate cortex (V1), and filled with a 4% solution of agar in saline and sealed with wax. The eyes were protected from desiccation with contact lenses; spectacle lenses and artificial pupils were used when needed to focus the eyes on a tangent screen positioned 228 cm from the retina. The locations of the optic discs and foveae were determined repeatedly during the course of each recording session. No visible deterioration in optics occurred during the experimental period (2-5 days).
Extracellular action potentials of isolated cortical cells were recorded with microelectrodes having impedances of 3-5 MΩ. The electrode was advanced using a hydraulic microdrive (David Kopf instruments, Tojunga, Calif.) to precisely position it. The position of the electrode was confirmed by determining the receptive filed positions of the cortical cells at the recording site. A1 V1 cells studied had receptive fields between about 3 and 7 degrees from the fovea.
After placing the microelectrode as in Example 1, visual stimuli were measured using a Tektronix (Beaverton, Oreg.) 608 display driven by a Picasso (Inning Cambridge, Mass.) image synthesizer and a texture/motion generator (Innisfree). The Picasso and texture/motion generator were computer controlled in conjunction with a hardware and software package from Cambridge Electronics Design (Cambridge, England). The center of the display screen was 171 cm from the animal's retina.
The physiological orientation biases and direction biases of cortical cell were studied quantitatively. The orientation of each drifting stimulus presented was orthogonal to its direction of motion. […]

Compound | signal-to-noise ratio of cortical cells (response to appropriate stimuli divided by spontaneous discharge rate) (old monkeys) | time until drug effects wear off after administration ceases (old monkeys, intracortical delivery) | peak response (maximum visually evoked response) of V1 cortical cells (old monkeys) | spontaneous activity of V1 cortical cells (old monkeys) | direction selectivity of a representative cortical cell | orientation selectivity of a representative cortical cell | peak response of a representative cortical cell | spontaneous activity of a representative cortical cell | number/proportion of orientation and direction selective cells in area V1 (old monkeys, FIGS. 8 and 9) | time until effects are seen after drug administration (old monkeys, intracortical delivery, current 15-50 n amp for 1-3 minutes)
NCc1cc(=O)[nH]o1 [muscimol] | increased signal-to-noise ratios dramatically | Five minutes after the discontinuation | reduce the peak responses and spontaneous activity of cortical cells to the normal levels seen in young monkeys | reduce the peak responses and spontaneous activity of cortical cells to the normal levels seen in young monkeys | very strong direction selectivity | moderate orientation selectivity | decreased peak response | decreased spontaneous activity |  | 
NCCCC(=O)O [GABA, Gamma-aminobutyric acid] | increased signal-to-noise ratios dramatically |  | reduce the peak responses and spontaneous activity of cortical cells to the normal levels seen in young monkeys | reduce the peak responses and spontaneous activity of cortical cells to the normal levels seen in young monkeys | moderate direction selectivity | strong orientation | peak response decreased | decreased as did its spontaneous activity | very close to what is found in normal young monkeys | Three to five minutes
